Laboratory results from the supplement of paper PMC10307832.

Columns and labels:
Assay in all cases: relative viability (nuclei count vs DMSO), 5 days (fraction); higher = more cells survive
NCI-H520 = system: NCI-H520
Outline: (§1)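 Medians of duplicate plates are given as relative viability. That measure is the nuclei count in treated wells divided by the count in vehicle wells. Counts were taken on 4× images of lung cancer cell lines in 1536-well plates, 5 days after pin-tool dosing the day after seeding with one drug alone or a fixed anchor-drug dose plus five library-drug doses (not always all listed) in √10 steps.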

NCI-H838 = system: NCI-H838
Outline: as §1

IA-LM = system: IA-LM
Outline: as §1

Calu-6 = system: Calu-6
Outline: as §1

A549 = system: A549
Outline: as §1

NCI-H1299 = system: NCI-H1299
Outline: as §1

RERF-LC-KJ = system: RERF-LC-KJ
Outline: as §1

NCI-H650 = system: NCI-H650
Outline: as §1

NCI-H1651 = system: NCI-H1651
Outline: as §1

EBC-1 = system: EBC-1
Outline: as §1

NCI-H1944 = system: NCI-H1944
Outline: as §1

NCI-H1703 = system: NCI-H1703
Outline: as §1

## O=c1cc(N2CCOCC2)oc2c(-c3cccc4c3sc3ccccc34)cccc12 + Cc1nc(NC(=O)N2CCC[C@H]2C(N)=O)sc1-c1ccnc(C(C)(C)C(F)(F)F)c1 [Alpelisib] (partner 2 µM)
NCI-H520; first compound 0.01 µM
  relative viability: 0.997
NCI-H520; first compound 0.03162 µM
  relative viability: 1.09
NCI-H520; first compound 0.1 µM
  relative viability: 0.915
NCI-H520; first compound 0.3162 µM
  relative viability: 0.841
NCI-H520; first compound 1 µM
  relative viability: 0.996
NCI-H838; first compound 0.01 µM
  relative viability: 0.961
NCI-H838; first compound 0.03162 µM
  relative viability: 0.99
NCI-H838; first compound 0.1 µM
  relative viability: 1.03
NCI-H838; first compound 0.3162 µM
  relative viability: 1.02
NCI-H838; first compound 1 µM
  relative viability: 0.975
IA-LM; first compound 0.01 µM
  relative viability: 0.837
IA-LM; first compound 0.03162 µM
  relative viability: 0.769
IA-LM; first compound 0.1 µM
  relative viability: 0.828
IA-LM; first compound 0.3162 µM
  relative viability: 0.736
IA-LM; first compound 1 µM
  relative viability: 0.735
Calu-6; first compound 0.01 µM
  relative viability: 0.98
Calu-6; first compound 0.03162 µM
  relative viability: 1.05
Calu-6; first compound 0.1 µM
  relative viability: 1.01
Calu-6; first compound 0.3162 µM
  relative viability: 1.04
Calu-6; first compound 1 µM
  relative viability: 0.974
A549; first compound 0.01 µM
  relative viability: 0.866
A549; first compound 0.03162 µM
  relative viability: 0.775
A549; first compound 0.1 µM
  relative viability: 0.814
A549; first compound 0.3162 µM
  relative viability: 0.811
A549; first compound 1 µM
  relative viability: 0.845
NCI-H1299; first compound 0.01 µM
  relative viability: 1.05
NCI-H1299; first compound 0.03162 µM
  relative viability: 1.07
NCI-H1299; first compound 0.1 µM
  relative viability: 1.11
NCI-H1299; first compound 0.3162 µM
  relative viability: 1.09
NCI-H1299; first compound 1 µM
  relative viability: 1.09
RERF-LC-KJ; first compound 0.01 µM
  relative viability: 0.834
RERF-LC-KJ; first compound 0.03162 µM
  relative viability: 0.892
RERF-LC-KJ; first compound 0.1 µM
  relative viability: 0.981
RERF-LC-KJ; first compound 0.3162 µM
  relative viability: 0.86
RERF-LC-KJ; first compound 1 µM
  relative viability: 0.9
NCI-H650; first compound 0.01 µM
  relative viability: 1.06
NCI-H650; first compound 0.03162 µM
  relative viability: 1.15
NCI-H650; first compound 0.3162 µM
  relative viability: 1.21
NCI-H650; first compound 1 µM
  relative viability: 1.09
NCI-H1651; first compound 0.01 µM
  relative viability: 0.924
NCI-H1651; first compound 0.03162 µM
  relative viability: 0.952
NCI-H1651; first compound 0.1 µM
  relative viability: 1.04
NCI-H1651; first compound 0.3162 µM
  relative viability: 0.968
NCI-H1651; first compound 1 µM
  relative viability: 1.01
EBC-1; first compound 0.01 µM
  relative viability: 0.977
EBC-1; first compound 0.03162 µM
  relative viability: 0.77
EBC-1; first compound 0.1 µM
  relative viability: 0.837
EBC-1; first compound 0.3162 µM
  relative viability: 0.966
EBC-1; first compound 1 µM
  relative viability: 0.827
NCI-H1944; first compound 0.01 µM
  relative viability: 0.814
NCI-H1944; first compound 0.03162 µM
  relative viability: 0.833
NCI-H1944; first compound 0.1 µM
  relative viability: 0.82
NCI-H1944; first compound 0.3162 µM
  relative viability: 0.847
NCI-H1944; first compound 1 µM
  relative viability: 0.801
NCI-H1703; first compound 0.01 µM
  relative viability: 0.538
NCI-H1703; first compound 0.03162 µM
  relative viability: 0.33
NCI-H1703; first compound 0.1 µM
  relative viability: 0.331
NCI-H1703; first compound 0.3162 µM
  relative viability: 0.317
NCI-H1703; first compound 1 µM
  relative viability: 0.317

## CCN(CC)CCCCNc1ncc2cc(-c3cc(OC)cc(OC)c3)c(NC(=O)NC(C)(C)C)nc2n1 + Cc1nc(NC(=O)N2CCC[C@H]2C(N)=O)sc1-c1ccnc(C(C)(C)C(F)(F)F)c1 [Alpelisib] (partner 2 µM)
NCI-H520; first compound 0.01 µM
  relative viability: 1.07
NCI-H520; first compound 0.03162 µM
  relative viability: 0.898
NCI-H520; first compound 0.1 µM
  relative viability: 1.16
NCI-H520; first compound 0.3162 µM
  relative viability: 0.662
NCI-H520; first compound 1 µM
  relative viability: 0.332
NCI-H838; first compound 0.01 µM
  relative viability: 1.11
NCI-H838; first compound 0.03162 µM
  relative viability: 0.964
NCI-H838; first compound 0.1 µM
  relative viability: 0.996
NCI-H838; first compound 0.3162 µM
  relative viability: 1.04
NCI-H838; first compound 1 µM
  relative viability: 0.602
IA-LM; first compound 0.01 µM
  relative viability: 0.62
IA-LM; first compound 0.03162 µM
  relative viability: 0.659
IA-LM; first compound 0.1 µM
  relative viability: 0.672
IA-LM; first compound 0.3162 µM
  relative viability: 0.836
IA-LM; first compound 1 µM
  relative viability: 0.597
Calu-6; first compound 0.01 µM
  relative viability: 1
Calu-6; first compound 0.03162 µM
  relative viability: 0.996
Calu-6; first compound 0.1 µM
  relative viability: 0.868
Calu-6; first compound 0.3162 µM
  relative viability: 1.09
Calu-6; first compound 1 µM
  relative viability: 1.01
A549; first compound 0.01 µM
  relative viability: 0.726
A549; first compound 0.03162 µM
  relative viability: 0.801
A549; first compound 0.1 µM
  relative viability: 0.985
A549; first compound 0.3162 µM
  relative viability: 0.828
A549; first compound 1 µM
  relative viability: 0.57
NCI-H1299; first compound 0.01 µM
  relative viability: 1.12
NCI-H1299; first compound 0.03162 µM
  relative viability: 1.12
NCI-H1299; first compound 0.1 µM
  relative viability: 1.08
NCI-H1299; first compound 0.3162 µM
  relative viability: 1.04
NCI-H1299; first compound 1 µM
  relative viability: 1.04
RERF-LC-KJ; first compound 0.01 µM
  relative viability: 1.08
RERF-LC-KJ; first compound 0.03162 µM
  relative viability: 0.919
RERF-LC-KJ; first compound 0.1 µM
  relative viability: 0.925
RERF-LC-KJ; first compound 0.3162 µM
  relative viability: 0.951
RERF-LC-KJ; first compound 1 µM
  relative viability: 0.826
NCI-H650; first compound 0.01 µM
  relative viability: 1.04
NCI-H650; first compound 0.03162 µM
  relative viability: 1.04
NCI-H650; first compound 0.1 µM
  relative viability: 1.21
NCI-H650; first compound 0.3162 µM
  relative viability: 1.09
NCI-H650; first compound 1 µM
  relative viability: 0.865
NCI-H1651; first compound 0.01 µM
  relative viability: 0.938
NCI-H1651; first compound 0.03162 µM
  relative viability: 1
NCI-H1651; first compound 0.1 µM
  relative viability: 1.1
NCI-H1651; first compound 0.3162 µM
  relative viability: 1.13
NCI-H1651; first compound 1 µM
  relative viability: 0.844
EBC-1; first compound 0.01 µM
  relative viability: 0.831
EBC-1; first compound 0.03162 µM
  relative viability: 0.887
EBC-1; first compound 0.1 µM
  relative viability: 0.965
EBC-1; first compound 0.3162 µM
  relative viability: 0.918
EBC-1; first compound 1 µM
  relative viability: 0.664
NCI-H1944; first compound 0.01 µM
  relative viability: 0.884
NCI-H1944; first compound 0.03162 µM
  relative viability: 0.842
NCI-H1944; first compound 0.1 µM
  relative viability: 0.89
NCI-H1944; first compound 0.3162 µM
  relative viability: 0.95
NCI-H1944; first compound 1 µM
  relative viability: 0.799
NCI-H1703; first compound 0.01 µM
  relative viability: 0.262
NCI-H1703; first compound 0.1 µM
  relative viability: 0.397
NCI-H1703; first compound 0.3162 µM
  relative viability: 0.45
NCI-H1703; first compound 1 µM
  relative viability: 0.292
